According to patent US20110263521A1, “PHARMACEUTICAL OR COSMETIC PREPARATIONS FOR TOPICAL AND/OR PARENTERAL APPLICATION, PREPARATION METHODS THEREOF AND USE OF SAME” (priority 2007, published 2011):

Experiments:
[1] = target: T1, hyaluronidase of bovine origin (Bos taurus, UniProt Q2YDK3); assay: Inhibitory effect of glycyrrhizin on hyaluronidase activity (turbidimetry of nonhydrolysed hyaluronic acid); format: biochemical; conditions: without preincubation with the enzyme; read-out: concentration of GLZ which gives 50% inhibition (IC50) of the hyaluronidase activity
T1 sequence (Q2YDK3 36-553): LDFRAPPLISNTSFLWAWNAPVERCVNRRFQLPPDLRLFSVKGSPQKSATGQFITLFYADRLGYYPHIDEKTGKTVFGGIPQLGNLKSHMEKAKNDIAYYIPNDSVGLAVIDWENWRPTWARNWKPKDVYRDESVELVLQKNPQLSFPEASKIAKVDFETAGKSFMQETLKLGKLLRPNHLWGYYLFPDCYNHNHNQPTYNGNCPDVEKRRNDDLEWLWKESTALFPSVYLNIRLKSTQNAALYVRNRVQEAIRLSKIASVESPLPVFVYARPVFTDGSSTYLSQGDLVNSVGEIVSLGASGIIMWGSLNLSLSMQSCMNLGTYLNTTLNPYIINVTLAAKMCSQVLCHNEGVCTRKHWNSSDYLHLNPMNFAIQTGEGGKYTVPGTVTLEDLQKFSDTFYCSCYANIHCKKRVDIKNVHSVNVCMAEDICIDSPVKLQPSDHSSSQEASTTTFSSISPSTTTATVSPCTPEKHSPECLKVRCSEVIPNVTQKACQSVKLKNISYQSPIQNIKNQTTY
Method: Determination of the IC50 of GLZ, with or without Preincubation at 37° C.:
GLZ, at various concentrations, is or is not preincubated for 20 minutes at 37° C. in the presence of the enzyme. The enzyme reaction is triggered by adding the hyaluronic acid solution (time T0). After incubation for 20 minutes, the nonhydrolysed hyaluronic acid is precipitated by adding acidic bovine albumin solution.
In order to verify that the preincubation step has no effect on the stability of the hyaluronidase, an aliquot of a solution of the enzyme is placed at 37° C. for 20 minutes. Another aliquot is conserved in an ice bath for 19 minutes, and is then incubated at 37° C. for 1 minute. A solution of hyaluronic acid is then added to each aliquot (TO). After incubation for 15, 30 or 45 minutes, the nonhydrolysed hyaluronic acid is precipitated by addition of acidic bovine albumin solution.
After the precipitation step, the turbidimetry of the solutions is determined on a spectrophotometer at a wavelength of 600 nm. The optical density (OD) of these solutions is subtracted from the OD of a control solution of hyaluronic acid (of the same concentration) not hydrolysed by the enzyme. This difference in OD, which is inversely proportional to the concentration of hyaluronic acid, is used to measure the activity of the hyaluronidase.

[2] = humans; cited from earlier work

Compound | IC50 [1] | excretion in the urine [2]
CC1(C)[C@@H](O[C@H]2O[C@H](C(=O)O)[C@@H](O)[C@H](O)[C@H]2O[C@@H]2O[C@H](C(=O)O)[C@@H](O)[C@H](O)[C@H]2O)CC[C@]2(C)[C@H]3C(=O)C=C4[C@@H]5C[C@@](C)(C(=O)O)CC[C@]5(C)CC[C@@]4(C)[C@]3(C)CC[C@@H]12 [GLZ, Glycyrrhizin] | 400 µM | –
hyaluronic acid | – | less than 1 % of total clearance
